From the supplement of paper PMC10307832

Compound: COC1=CC=C(C=C1)CN2C=CC3=C2C=C(C=C3)C(=O)NO + O=C(c1cc(Cc2n[nH]c(=O)c3ccccc23)ccc1F)N1CCN(C(=O)C2CC2)CC1 [Olaparib] (partner 8 µM)
Assay: relative viability (nuclei count vs DMSO), 5 days (fraction); higher = more cells survive
Details: first compound 0.253 µM
In short: (§1)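 Lung cancer cell lines were seeded in 1536-well plates and dosed by pin tool the next day, with either a single drug or a fixed anchor-drug dose combined with five library-drug doses (not always all listed) spaced in √10 steps. Five days later, one step fixed the cells and stained their nuclei (final 0.05% Triton X-100, 1% formaldehyde, 1 ug/ml Hoechst), and nuclei were counted on 4× images. Relative viability is the nuclei count in treated wells divided by the count in vehicle wells, and each value is the median of duplicate plates.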

Row | Cell Line | relative viability
1 | UMC-11 | 0.355
2 | NCI-H2228 | 0.82
3 | NCI-H1703 | 0.581
4 | Calu-6 | 0.544
5 | SK-MES-1 | 0.665
6 | NCI-H661 | 0.726
7 | CAL-12T | 0.675

Same assay, conditions: first compound 0.8 µM

Row | Cell Line | relative viability
8 | NCI-H2342 | 0.457
9 | LU99A | 0.262
10 | NCI-H1975 | 0.697
11 | H3255 | 0.605
12 | NCI-H2023 | 0.464
13 | NCI-H2405 | 0.85
14 | SK-LU-1 | 0.627
15 | NCI-H1734 | 0.63
16 | NCI-H1437 | 0.626
17 | ABC-1 | 0.73
18 | NCI-H596 | 0.735
19 | HCC-15 | 0.729
20 | NCI-H460 | 0.401
21 | EMC-BAC-2 | 0.524
22 | IA-LM | 0.954
23 | NCI-H2009 | 0.678
24 | COR-L 105 | 0.808

Row | Cell Line | relative viability
25 | NCI-H1395 | 0.49
26 | NCI-H520 | 0.327
27 | NCI-H1648 | 0.964
28 | EBC-1 | 0.748
29 | NCI-H1299 | 0.948
30 | NCI-H1650 | 0.775
31 | A549 | 0.39
32 | SW 900 | 0.769
33 | COR-L23 | 0.292
34 | NCI-H522 | 0.693
35 | UMC-11 | 0.415
36 | NCI-H2228 | 0.79
37 | NCI-H1703 | 0.817
38 | Calu-6 | 0.556
39 | SK-MES-1 | 0.676
40 | NCI-H661 | 0.778
41 | CAL-12T | 0.709

Same assay, conditions: first compound 2.53 µM

Row | Cell Line | relative viability
42 | NCI-H2342 | 0.442
43 | LU99A | 0.252
44 | NCI-H1975 | 0.678
45 | H3255 | 0.579
46 | NCI-H2023 | 0.433
47 | NCI-H2405 | 0.887
48 | SK-LU-1 | 0.449
49 | NCI-H1734 | 0.55
50 | NCI-H1437 | 0.676
51 | ABC-1 | 0.734
52 | NCI-H596 | 0.805
53 | HCC-15 | 0.846
54 | NCI-H460 | 0.465
55 | EMC-BAC-2 | 0.471
56 | IA-LM | 0.902
57 | NCI-H2009 | 0.643
58 | COR-L 105 | 0.715

Row | Cell Line | relative viability
59 | NCI-H1395 | 0.496
60 | NCI-H520 | 0.339
61 | NCI-H1648 | 0.932
62 | EBC-1 | 0.695
63 | NCI-H1299 | 1.03
64 | NCI-H1650 | 0.762
65 | A549 | 0.337
66 | SW 900 | 0.849
67 | COR-L23 | 0.369
68 | NCI-H522 | 0.65
69 | UMC-11 | 0.911
70 | NCI-H2228 | 0.88
71 | NCI-H1703 | 0.491
72 | Calu-6 | 0.602
73 | SK-MES-1 | 0.64
74 | NCI-H661 | 0.67
75 | CAL-12T | 0.735

Same assay, conditions: first compound 8 µM

Row | Cell Line | relative viability
76 | NCI-H2342 | 0.373
77 | LU99A | 0.26
78 | NCI-H1975 | 0.785
79 | H3255 | 0.532
80 | NCI-H2023 | 0.413
81 | NCI-H2405 | 0.799
82 | SK-LU-1 | 0.422
83 | NCI-H1734 | 0.676
84 | NCI-H1437 | 0.618
85 | ABC-1 | 0.87
86 | NCI-H596 | 0.725
87 | HCC-15 | 0.728
88 | NCI-H460 | 0.397
89 | EMC-BAC-2 | 0.445
90 | IA-LM | 0.833
91 | NCI-H2009 | 0.658
92 | COR-L 105 | 0.706

Row | Cell Line | relative viability
93 | NCI-H1395 | 0.436
94 | NCI-H520 | 0.286
95 | NCI-H1648 | 0.651
96 | EBC-1 | 0.633
97 | NCI-H1299 | 0.92
98 | NCI-H1650 | 0.78
99 | A549 | 0.252
100 | SW 900 | 0.604
101 | COR-L23 | 0.286
102 | NCI-H522 | 0.568
103 | UMC-11 | 0.373
104 | NCI-H2228 | 0.651
105 | NCI-H1703 | 0.46
106 | Calu-6 | 0.51
107 | SK-MES-1 | 0.598
108 | NCI-H661 | 0.66
109 | CAL-12T | 0.649

Compound: C[C@]1(c2nc3c(C(N)=O)cccc3[nH]2)CCCN1 [Veliparib] + CS(=O)(=O)N1CCN(Cc2cc3nc(-c4cccc5[nH]ncc45)nc(N4CCOCC4)c3s2)CC1 [Pictilisib] (partner 1 µM)
Assay: as above
Details: first compound 0.02 µM
In short: as §1

Row | Cell Line | relative viability
110 | LU99A | 0.349
111 | NCI-H1975 | 0.292
112 | H3255 | 0.476
113 | NCI-H2023 | 0.196
114 | SK-LU-1 | 0.624
115 | NCI-H1734 | 0.461
116 | NCI-H1437 | 0.419
117 | NCI-H596 | 0.394
118 | HCC-15 | 0.581
119 | NCI-H460 | 0.349
120 | EMC-BAC-2 | 0.483
121 | IA-LM | 0.444
122 | NCI-H2009 | 0.734
123 | COR-L 105 | 0.364
124 | NCI-H520 | 0.392
125 | EBC-1 | 0.439
126 | NCI-H1299 | 0.985
127 | A549 | 0.526
128 | COR-L23 | 0.722
129 | NCI-H1563 | 0.642
130 | UMC-11 | 0.779
131 | NCI-H2228 | 0.464
132 | NCI-H1703 | 0.267
133 | Calu-6 | 1.02
134 | SK-MES-1 | 0.373
135 | NCI-H661 | 0.397
136 | CAL-12T | 0.439

Same assay, conditions: first compound 0.06325 µM

Row | Cell Line | relative viability
137 | LU99A | 0.279
138 | NCI-H1975 | 0.283
139 | H3255 | 0.514
140 | NCI-H2023 | 0.238
141 | NCI-H2405 | 0.46
142 | SK-LU-1 | 0.573
143 | NCI-H1734 | 0.436
144 | NCI-H1437 | 0.512
145 | ABC-1 | 0.702
146 | NCI-H596 | 0.35
147 | HCC-15 | 0.748
148 | NCI-H460 | 0.335
149 | EMC-BAC-2 | 0.542
150 | IA-LM | 0.364
151 | NCI-H2009 | 0.777
152 | COR-L 105 | 0.388

Row | Cell Line | relative viability
153 | NCI-H1395 | 0.516
154 | NCI-H520 | 0.267
155 | EBC-1 | 0.38
156 | NCI-H1299 | 0.703
157 | NCI-H1650 | 0.507
158 | A549 | 0.504
159 | COR-L23 | 0.645
160 | NCI-H1563 | 0.635
161 | UMC-11 | 0.891
162 | NCI-H2228 | 0.538
163 | NCI-H1703 | 0.267
164 | Calu-6 | 0.887
165 | SK-MES-1 | 0.295
166 | NCI-H661 | 0.317
167 | CAL-12T | 0.395

Same assay, conditions: first compound 0.2 µM

Row | Cell Line | relative viability
168 | LU99A | 0.296
169 | NCI-H1975 | 0.336
170 | H3255 | 0.48
171 | NCI-H2023 | 0.251
172 | NCI-H2405 | 0.456
173 | SK-LU-1 | 0.483
174 | NCI-H1734 | 0.492
175 | NCI-H1437 | 0.552
176 | ABC-1 | 0.609
177 | NCI-H596 | 0.4
178 | HCC-15 | 0.682
179 | NCI-H460 | 0.325
180 | EMC-BAC-2 | 0.569
181 | IA-LM | 0.374
182 | NCI-H2009 | 0.704
183 | COR-L 105 | 0.351

Row | Cell Line | relative viability
184 | NCI-H1395 | 0.557
185 | NCI-H520 | 0.316
186 | EBC-1 | 0.477
187 | NCI-H1299 | 0.779
188 | NCI-H1650 | 0.61
189 | A549 | 0.476
190 | COR-L23 | 0.697
191 | NCI-H1563 | 0.625
192 | UMC-11 | 0.817
193 | NCI-H2228 | 0.378
194 | NCI-H1703 | 0.23
195 | Calu-6 | 0.892
196 | SK-MES-1 | 0.402
197 | NCI-H661 | 0.354
198 | CAL-12T | 0.522

Same assay, conditions: first compound 0.6325 µM

Row | Cell Line | relative viability
199 | LU99A | 0.278
200 | NCI-H1975 | 0.282
201 | H3255 | 0.458
202 | NCI-H2023 | 0.209
203 | NCI-H2405 | 0.468
204 | SK-LU-1 | 0.585
205 | NCI-H1734 | 0.437
206 | NCI-H1437 | 0.378
207 | ABC-1 | 0.735
208 | NCI-H596 | 0.362
209 | HCC-15 | 0.691
210 | NCI-H460 | 0.347
211 | EMC-BAC-2 | 0.524
212 | IA-LM | 0.306
213 | NCI-H2009 | 0.786
214 | COR-L 105 | 0.391

Row | Cell Line | relative viability
215 | NCI-H1395 | 0.675
216 | NCI-H520 | 0.283
217 | EBC-1 | 0.318
218 | NCI-H1299 | 0.751
219 | NCI-H1650 | 0.519
220 | A549 | 0.455
221 | COR-L23 | 0.536
222 | NCI-H1563 | 0.675
223 | UMC-11 | 0.876
224 | NCI-H2228 | 0.463
225 | NCI-H1703 | 0.254
226 | Calu-6 | 0.816
227 | SK-MES-1 | 0.336
228 | NCI-H661 | 0.359
229 | CAL-12T | 0.386

Same assay, conditions: first compound 2 µM

Row | Cell Line | relative viability
230 | LU99A | 0.323
231 | NCI-H1975 | 0.287
232 | H3255 | 0.499
233 | NCI-H2023 | 0.224
234 | NCI-H2405 | 0.308
235 | SK-LU-1 | 0.536
236 | NCI-H1734 | 0.435
237 | NCI-H1437 | 0.362
238 | ABC-1 | 0.851
239 | NCI-H596 | 0.416
240 | HCC-15 | 0.662
241 | NCI-H460 | 0.377
242 | EMC-BAC-2 | 0.541
243 | IA-LM | 0.367
244 | NCI-H2009 | 0.813
245 | COR-L 105 | 0.56

Row | Cell Line | relative viability
246 | NCI-H1395 | 0.524
247 | NCI-H520 | 0.227
248 | EBC-1 | 0.42
249 | NCI-H1299 | 0.765
250 | NCI-H1650 | 0.566
251 | A549 | 0.521
252 | COR-L23 | 0.774
253 | NCI-H1563 | 0.595
254 | UMC-11 | 0.883
255 | NCI-H2228 | 0.425
256 | NCI-H1703 | 0.216
257 | Calu-6 | 0.85
258 | SK-MES-1 | 0.347
259 | NCI-H661 | 0.393
260 | CAL-12T | 0.351
